From the supplement of paper PMC10307832

How the values were obtained:
Experiment in all cases: relative viability (nuclei count vs DMSO), 5 days (fraction); higher = more cells survive
[1] = compound: CCn1c(-c2nonc2N)nc2cnc(Oc3cccc(NC(=O)c4ccc(OCCN5CCOCC5)cc4)c3)cc21 + Cc1nc(NC(=O)N2CCC[C@H]2C(N)=O)sc1-c1ccnc(C(C)(C)C(F)(F)F)c1 [Alpelisib] (partner 2 µM)
Procedure, shortened: (§1)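 Lung cancer cell lines were pin-tool dosed in 1536-well plates on the day after seeding, with either a lone drug or a fixed anchor-drug dose plus five library-drug doses (not always all listed) in √10 steps. Nuclei were counted on 4× images after 5 days. Relative viability is the ratio of treated-well to vehicle-well nuclei counts, with each value a median of duplicate plates.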

[2] = compound: CCn1c(-c2nonc2N)nc2cnc(Oc3cccc(NC(=O)c4ccc(OCCN5CCOCC5)cc4)c3)cc21 + Nc1ncn([C@H]2C[C@H](O)[C@@H](CO)O2)c(=O)n1 [Decitabine] (partner 2 µM)
Procedure, shortened: as §1

Mirin + Palbociclib = compound: N=C1NC(=O)/C(=C/c2ccc(O)cc2)S1 [Mirin] + CC(=O)c1c(C)c2cnc(Nc3ccc(N4CCNCC4)cn3)nc2n(C2CCCC2)c1=O [Palbociclib] (partner 0.5 µM)
Procedure, shortened: as §1

Mirin + Vorinostat = compound: N=C1NC(=O)/C(=C/c2ccc(O)cc2)S1 [Mirin] + O=C(CCCCCCC(=O)Nc1ccccc1)NO [Vorinostat] (partner 1 µM)
Procedure, shortened: as §1

## LCLC-103H
[1]; first compound 0.04 µM
  relative viability: 1.2
[1]; first compound 0.1265 µM
  relative viability: 0.935
[1]; first compound 0.4 µM
  relative viability: 0.961
[1]; first compound 1.265 µM
  relative viability: 1.11
[1]; first compound 4 µM
  relative viability: 1.03
[2]; first compound 0.04 µM
  relative viability: 0.647
[2]; first compound 0.1265 µM
  relative viability: 0.686
[2]; first compound 0.4 µM
  relative viability: 0.704
[2]; first compound 1.265 µM
  relative viability: 0.664
[2]; first compound 4 µM
  relative viability: 0.723
Mirin + Palbociclib; first compound 0.25 µM
  relative viability: 0.421
Mirin + Palbociclib; first compound 0.7906 µM
  relative viability: 0.518
Mirin + Palbociclib; first compound 2.5 µM
  relative viability: 0.515
Mirin + Palbociclib; first compound 7.906 µM
  relative viability: 0.458
Mirin + Palbociclib; first compound 25 µM
  relative viability: 0.451
Mirin + Vorinostat; first compound 0.25 µM
  relative viability: 0.774
Mirin + Vorinostat; first compound 0.7906 µM
  relative viability: 0.695
Mirin + Vorinostat; first compound 2.5 µM
  relative viability: 0.79
Mirin + Vorinostat; first compound 7.906 µM
  relative viability: 0.793
Mirin + Vorinostat; first compound 25 µM
  relative viability: 0.868

## NCI-H520
[1]; first compound 0.04 µM
  relative viability: 1.18
[1]; first compound 0.1265 µM
  relative viability: 0.982
[1]; first compound 0.4 µM
  relative viability: 0.897
[1]; first compound 1.265 µM
  relative viability: 0.788
[1]; first compound 4 µM
  relative viability: 0.522
[2]; first compound 0.04 µM
  relative viability: 0.611
[2]; first compound 0.1265 µM
  relative viability: 0.524
[2]; first compound 0.4 µM
  relative viability: 0.468
[2]; first compound 1.265 µM
  relative viability: 0.347
[2]; first compound 4 µM
  relative viability: 0.37
Mirin + Palbociclib; first compound 0.25 µM
  relative viability: 0.214
Mirin + Palbociclib; first compound 0.7906 µM
  relative viability: 0.267
Mirin + Palbociclib; first compound 2.5 µM
  relative viability: 0.245
Mirin + Palbociclib; first compound 7.906 µM
  relative viability: 0.188
Mirin + Palbociclib; first compound 25 µM
  relative viability: 0.138
Mirin + Vorinostat; first compound 0.25 µM
  relative viability: 0.67
Mirin + Vorinostat; first compound 0.7906 µM
  relative viability: 0.807
Mirin + Vorinostat; first compound 2.5 µM
  relative viability: 0.729
Mirin + Vorinostat; first compound 7.906 µM
  relative viability: 0.561
Mirin + Vorinostat; first compound 25 µM
  relative viability: 0.527

## NCI-H1755
[1]; first compound 0.04 µM
  relative viability: 0.975
[1]; first compound 0.1265 µM
  relative viability: 1.01
[1]; first compound 0.4 µM
  relative viability: 0.923
[1]; first compound 1.265 µM
  relative viability: 0.872
[1]; first compound 4 µM
  relative viability: 0.882
[2]; first compound 0.04 µM
  relative viability: 0.732
[2]; first compound 0.1265 µM
  relative viability: 0.72
[2]; first compound 0.4 µM
  relative viability: 0.729
[2]; first compound 1.265 µM
  relative viability: 0.719
[2]; first compound 4 µM
  relative viability: 0.654
Mirin + Palbociclib; first compound 0.25 µM
  relative viability: 0.469
Mirin + Palbociclib; first compound 0.7906 µM
  relative viability: 0.449
Mirin + Palbociclib; first compound 2.5 µM
  relative viability: 0.403
Mirin + Palbociclib; first compound 7.906 µM
  relative viability: 0.478
Mirin + Palbociclib; first compound 25 µM
  relative viability: 0.532
Mirin + Vorinostat; first compound 0.25 µM
  relative viability: 0.761
Mirin + Vorinostat; first compound 0.7906 µM
  relative viability: 0.62
Mirin + Vorinostat; first compound 2.5 µM
  relative viability: 0.863
Mirin + Vorinostat; first compound 7.906 µM
  relative viability: 0.59
Mirin + Vorinostat; first compound 25 µM
  relative viability: 0.824

## NCI-H358
[1]; first compound 0.04 µM
  relative viability: 1.01
[1]; first compound 0.1265 µM
  relative viability: 1.04
[1]; first compound 0.4 µM
  relative viability: 0.792
[1]; first compound 1.265 µM
  relative viability: 0.65
[1]; first compound 4 µM
  relative viability: 0.42
[2]; first compound 0.04 µM
  relative viability: 0.219
[2]; first compound 0.1265 µM
  relative viability: 0.273
[2]; first compound 0.4 µM
  relative viability: 0.19
[2]; first compound 1.265 µM
  relative viability: 0.198
[2]; first compound 4 µM
  relative viability: 0.161
Mirin + Palbociclib; first compound 0.25 µM
  relative viability: 0.127
Mirin + Palbociclib; first compound 0.7906 µM
  relative viability: 0.145
Mirin + Palbociclib; first compound 2.5 µM
  relative viability: 0.148
Mirin + Palbociclib; first compound 7.906 µM
  relative viability: 0.139
Mirin + Palbociclib; first compound 25 µM
  relative viability: 0.199
Mirin + Vorinostat; first compound 0.25 µM
  relative viability: 0.698
Mirin + Vorinostat; first compound 0.7906 µM
  relative viability: 0.729
Mirin + Vorinostat; first compound 2.5 µM
  relative viability: 0.698
Mirin + Vorinostat; first compound 7.906 µM
  relative viability: 0.737
Mirin + Vorinostat; first compound 25 µM
  relative viability: 0.453

## NCI-H1734
[1]; first compound 0.04 µM
  relative viability: 0.802
[1]; first compound 0.1265 µM
  relative viability: 0.708
[1]; first compound 0.4 µM
  relative viability: 0.513
[1]; first compound 1.265 µM
  relative viability: 0.571
[1]; first compound 4 µM
  relative viability: 0.402
[2]; first compound 0.04 µM
  relative viability: 0.574
[2]; first compound 0.1265 µM
  relative viability: 0.504
[2]; first compound 0.4 µM
  relative viability: 0.515
[2]; first compound 1.265 µM
  relative viability: 0.459
[2]; first compound 4 µM
  relative viability: 0.393
Mirin + Palbociclib; first compound 0.25 µM
  relative viability: 0.349
Mirin + Palbociclib; first compound 0.7906 µM
  relative viability: 0.364
Mirin + Palbociclib; first compound 2.5 µM
  relative viability: 0.356
Mirin + Palbociclib; first compound 7.906 µM
  relative viability: 0.32
Mirin + Palbociclib; first compound 25 µM
  relative viability: 0.344
Mirin + Vorinostat; first compound 0.25 µM
  relative viability: 0.797
Mirin + Vorinostat; first compound 0.7906 µM
  relative viability: 0.688
Mirin + Vorinostat; first compound 2.5 µM
  relative viability: 0.783
Mirin + Vorinostat; first compound 7.906 µM
  relative viability: 0.693
Mirin + Vorinostat; first compound 25 µM
  relative viability: 0.735

## EPLC-272H
[1]; first compound 0.04 µM
  relative viability: 1.11
[1]; first compound 0.1265 µM
  relative viability: 0.963
[1]; first compound 0.4 µM
  relative viability: 0.892
[1]; first compound 1.265 µM
  relative viability: 0.933
[1]; first compound 4 µM
  relative viability: 0.973
[2]; first compound 0.04 µM
  relative viability: 0.469
[2]; first compound 0.1265 µM
  relative viability: 0.442
[2]; first compound 0.4 µM
  relative viability: 0.374
[2]; first compound 1.265 µM
  relative viability: 0.299
[2]; first compound 4 µM
  relative viability: 0.375
Mirin + Palbociclib; first compound 0.25 µM
  relative viability: 0.283
Mirin + Palbociclib; first compound 2.5 µM
  relative viability: 0.339
Mirin + Palbociclib; first compound 7.906 µM
  relative viability: 0.345
Mirin + Palbociclib; first compound 25 µM
  relative viability: 0.353
Mirin + Vorinostat; first compound 0.25 µM
  relative viability: 0.415
Mirin + Vorinostat; first compound 0.7906 µM
  relative viability: 0.549
Mirin + Vorinostat; first compound 2.5 µM
  relative viability: 0.487
Mirin + Vorinostat; first compound 7.906 µM
  relative viability: 0.349
Mirin + Vorinostat; first compound 25 µM
  relative viability: 0.192
